Results: US20250361269A1, “PEPTIDE EXHIBITING MUSCLE LOSS PREVENTION AND MUSCLE MASS PROMOTION ACTIVITIES, AND USE THEREOF” (CAREGEN CO., LTD., priority 2022, published 2025)

Key:
[1] = system: tibialis anterior (TA) muscle, muscle damage induced by BaCl2; assay: Muscle mass of TA muscle in BaCl2-induced muscle damage animal model; format: in vivo, C57BL/6 mouse; conditions: 20 mg peptide orally at 1-day intervals, six times; Day 7 after BaCl2 muscle damage
Description: In this example, an animal model of muscle damage induced by BaCl2 was used to determine the effect of the peptide according to an embodiment on the muscle loss prevention, by evaluating changes in muscle mass, areas of infiltration of immune cells in muscle tissue, levels of accumulated collagen, and expression levels of proteins constituting muscle fibers and inflammatory proteins. 50 μl of a 1.2% (w/v) BaCl2 aqueous solution was injected into the tibialis anterior (TA) muscle of a 8-week-old male C57BL/6 mouse to induce muscle damage for 1 day. Afterwards, 20 mg of the peptide of SEQ ID NO: 1 was administered orally at a concentration of 0.1 mg/μl at 1-day intervals for a total of six times to the mouse with induced muscle damage. For a positive control group, 0.5 ug of IGF-I was injected intramuscularly at a concentration of 0.01 ug/μl. On Day 7 after inducing the muscle damage, the mouse was sacrificed, and the changes in the TA muscle were visually observed and the mouse was weighed. A non-treated group (Non) was used as a control group, a group (N.C) in which only muscle damage was induced by BaCl2 was used as a negative control group, and a group (P.C) in which muscle damage was induced by BaCl2 and then treated with IGF-I was used as a positive control group.

C2C12 cells [2] = assay: Immunofluorescence of myogenin (MyoG) in C2C12 myoblasts; format: cell-based, mouse; conditions: 100 ug/ml peptide, after three days in differentiation medium
Description: C2C12 cells were cultured in a DMEM supplemented with 1% P/S and 2% BCS. When the cell confluency reached 70-80%, the cells were seeded into a 6-well culture plate. Afterwards, when the cell confluency in the 6-well culture plate reached 100%, the culture medium was replaced with a differentiation medium (supplemented with 1% P/S and 2% horse serum), and 100 ug/ml of the peptide of SEQ ID NO: 1 was added thereto. Afterwards, the differentiation medium and 100 ug/ml of the peptide were replaced and added, respectively, once every two days. After three days from the first day of medium replacement, the cultured cells were fixed with 4% paraformaldehyde (PFA) at room temperature for 10 minutes and permeabilized with 0.1% triton X-100 for 5 minutes. Afterwards, the fixed cells were mixed with PBS, 10% FBS, and 0.1% triton X-100 for blocking at room temperature for 1 hour, and then treated with primary antibodies (MyoG, Santa Cruz, USA). The resulting cells were incubated for 1 hour at room temperature. Afterwards, the cells were washed, and incubated again with secondary antibodies (goat anti-mouse IgG-TR, Santa Cruz, USA) at room temperature for 30 minutes. Afterwards, the cell nuclei were stained with DAPI (Santa Cruz, USA) and observed under a LEICA fluorescence microscope (TCS SP8, LEICA, Germany).

[3] = system: muscle tissue, muscle damage induced by BaCl2; assay: Sirius red staining of muscle tissue from BaCl2-induced muscle damage model; format: in vivo, C57BL/6 mouse; conditions: 20 mg peptide orally, six times, Day 7 after BaCl2 muscle damage
Description: (§1) 50 μl of a 1.2% (w/v) BaCl2 aqueous solution was injected into the tibialis anterior (TA) muscle of a 8-week-old male C57BL/6 mouse to induce muscle damage for 1 day. Afterwards, 20 mg of the peptide of SEQ ID NO: 1 was administered orally at a concentration of 0.1 mg/μl at 1-day intervals for a total of six times to the mouse with induced muscle damage. For a positive control group, 0.5 ug of IGF-I was injected intramuscularly at a concentration of 0.01 ug/μl. On Day 7 after inducing the muscle damage, the mouse was sacrificed, and the changes in the TA muscle were visually observed and the mouse was weighed. A non-treated group (Non) was used as a control group, a group (N.C) in which only muscle damage was induced by BaCl2 was used as a negative control group, and a group (P.C) in which muscle damage was induced by BaCl2 and then treated with IGF-I was used as a positive control group. Muscle tissue obtained from the mouse with induced muscle damage of Example 4-1 was washed with PBS at room temperature and then fixed with 4% paraformaldehyde (PFA). Afterwards, the fixed muscle tissue was washed three times with PBS and dehydrated by using a gradient ethanol series (from 70% to 100%). A sample of the muscle tissue was sectioned into 4 μm sections. […]

[4] = system: muscle tissue, muscle damage induced by BaCl2; assay: Western blotting of protein expression in muscle tissue from BaCl2-induced muscle damage model; format: in vivo, C57BL/6 mouse; conditions: 20 mg peptide orally, six times, Day 7 after BaCl2 muscle damage
Description: 50 μl of a 1.2% (w/v) BaCl2 aqueous solution was injected into the tibialis anterior (TA) muscle of a 8-week-old male C57BL/6 mouse to induce muscle damage for 1 day. Afterwards, 20 mg of the peptide of SEQ ID NO: 1 was administered orally at a concentration of 0.1 mg/μl at 1-day intervals for a total of six times to the mouse with induced muscle damage. For a positive control group, 0.5 ug of IGF-I was injected intramuscularly at a concentration of 0.01 ug/μl. On Day 7 after inducing the muscle damage, the mouse was sacrificed, and the changes in the TA muscle were visually observed and the mouse was weighed. A non-treated group (Non) was used as a control group, a group (N.C) in which only muscle damage was induced by BaCl2 was used as a negative control group, and a group (P.C) in which muscle damage was induced by BaCl2 and then treated with IGF-I was used as a positive control group. The muscle tissue obtained from the mouse with the induced muscle damage of Example 4-1 was lysed by using homogenizer, and the lysate was dissolved by adding a dissolution buffer thereto. The resulting product was centrifuged at 4° C. and 12,000 rpm for 30 minutes to obtain proteins which were then quantified by using a BCA kit. SDS-PAGE was performed on samples containing these proteins to separate the respective proteins which were then electrotransferred onto a membrane. The membrane to which the proteins were attached was blocked by treating with 5% skim milk, and primary antibodies were allowed for a reaction overnight at 4° C. After washing with PBS-T, secondary antibodies were allowed for a reaction at room temperature for 1 hour. After washing with PBS-T again, the proteins were detected by using Gel Doc (Bio-Rad, Hercules, CA, USA) and Western detection reagents (Elpis Biotech, Daejeon, Korea). Here, anti-MyHC (Santa Cruz, USA), anti-α-actinin (Santa Cruz, USA), anti-α-SMA (Abcam, UK), anti-IL-6 (Santa Cruz, USA), and anti-a-tubulin (Santa Cruz, USA) were used as the primary antibodies.

C2C12 cells [5] = assay: Western blotting of early differentiation markers in C2C12 myoblasts; format: cell-based, mouse; conditions: 5, 50, or 100 ug/ml peptide, after three days in differentiation medium, vs CM group
Description: In this example, by evaluating changes in the expression of an early differentiation marker protein of C2C12 cells, which are mouse myoblasts, it was to confirm the effects of the peptide according to an example on the differentiation of myoblasts into muscle cells/muscle fibers at an early differentiation stage.
The C2C12 cells were cultured in a DMEM supplemented with 1% P/S and 2% BCS. When the cell confluency reached 70-80%, the cells were seeded into 6-well culture plates. Afterwards, when the cell confluency in the 6-well culture plate reached 100%, the culture medium was replaced with a differentiation medium (supplemented with 1% P/S and 2% horse serum), and 5, 50, or 100 ug/ml of the peptide of SEQ ID NO: 1 was added thereto. Afterwards, the differentiation medium and the same amount of the peptide of SEQ ID NO: 1 were replaced and added, respectively, once every two days. After three days from the first day of medium replacement, the culture was lysed by adding a dissolution buffer thereto, and proteins were obtained by centrifugation at 4° C. and 12,000 rpm for 30 minutes. These proteins were then quantified by using a BCA kit. […] After washing with PBS-T again, the proteins were detected by using Gel Doc (Bio-Rad, Hercules, CA, USA) and Western detection reagents (Elpis Biotech, Daejeon, Korea). […]

C2C12 cells [6] = assay: Immunofluorescence of a-actinin in C2C12 myoblasts; format: cell-based, mouse; conditions: after 7 days in differentiation medium, vs CM group
[7] = system: muscle tissue, muscle damage induced by BaCl2; assay: H&E staining of muscle tissue from BaCl2-induced muscle damage model; format: in vivo, C57BL/6 mouse; conditions: 20 mg peptide orally, six times, Day 7 after BaCl2 muscle damage
Description: as §1

C2C12 cells [8] = assay: Western blotting of late differentiation marker MyHC in C2C12 myoblasts; format: cell-based, mouse; conditions: 5, 50, or 100 ug/ml peptide, after 7 days in differentiation medium, vs CM group
Description: The C2C12 cells were cultured in a DMEM supplemented with 1% P/S and 2% BCS. When the cell confluency reached 70-80%, the cells were seeded into 6-well culture plates. Afterwards, when the cell confluency in the 6-well culture plate reached 100%, the culture medium was replaced with a differentiation medium (supplemented with 1% P/S and 2% horse serum), and 5, 50, or 100 ug/ml of the peptide of SEQ ID NO: 1 was added thereto. Afterwards, the differentiation medium and the same amount of the peptide of SEQ ID NO: 1 were replaced and added, respectively, once every two days. […] These proteins were then quantified by using a BCA kit. SDS-PAGE was performed on samples containing these proteins to separate the respective proteins which were then electrotransferred onto a membrane. The membrane to which the proteins were attached was blocked by treating with 5% skim milk, and primary antibodies were allowed for a reaction overnight at 4° C. After washing with PBS-T, secondary antibodies were allowed for a reaction at room temperature for 1 hour. After washing with PBS-T again, the proteins were detected by using Gel Doc (Bio-Rad, Hercules, CA, USA) and Western detection reagents (Elpis Biotech, Daejeon, Korea). […]

EAEYEHL [peptide of SEQ ID NO: 1]
muscle mass of the TA muscle [1]: increased
expression of myogenin (MyoG) (C2C12 cells [2]): increased
expression of myogenin (MyoG) in the nuclear region of myoblasts (C2C12 cells [2]): increased
accumulation of collagen in the tissue [3]: reduced
expression of IL-6 in damaged tissue [4]: decreased
expression of MyHC, protein constituting muscle fibers, in damaged tissue [4]: increased
expression of α-SMA, inflammatory protein, in damaged tissue [4]: decreased
expression of α-actinin in damaged tissue [4]: increased
expression of Myf5, early differentiation marker of myoblasts (C2C12 cells [5]): increased
expression of myogenin (MyoG), early differentiation marker of myoblasts (C2C12 cells [5]): increased
expression of a-actinin, late differentiation marker of myoblasts (C2C12 cells [6]): increased
area of infiltration of immune cells in the tissue [7]: reduced
expression of MyHC, late differentiation marker of myoblasts (C2C12 cells [8]): increased
